Results: patent publication US12084521B2, “TLR9 inhibitors to suppress inflammatory response to pathogens” (University Of Maryland, Baltimore, priority 2018, dated 2024)
Entries after “also recorded” stand apart in the source; their conditions may differ.

Legend:
TLR9 TIR = target: T1, TLR9 TIR (Homo sapiens, UniProt Q9NR96); assay: FLIM/FRET binding of Cy3-labeled peptides to Cer-fused TIR in HeLa cells
T1 construct: expressed in transfected cells; host or cells: HeLa
T1 sequence (Q9NR96 868-1013 limits assumed): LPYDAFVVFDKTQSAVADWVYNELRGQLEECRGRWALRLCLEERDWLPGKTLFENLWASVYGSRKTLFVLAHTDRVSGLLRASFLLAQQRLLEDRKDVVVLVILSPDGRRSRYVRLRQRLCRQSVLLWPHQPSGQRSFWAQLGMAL
In short: (§1)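 HeLa cells transiently expressing Cerulean-fused TIR domains were exposed to Cy3-labeled peptides at various concentrations for 1 h, then fixed. Donor lifetimes came from FLIM with single/bi-exponential fits, and FRET efficiency was calculated as E=1−τDA/τD from whole-image average lifetimes.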

TIRAP TIR = target: T2, TIRAP TIR (Homo sapiens, UniProt P58753); assay: as above
T2 construct: fused with TLR9 TIR or TIRAP TIR; expressed in transfected cells; host or cells: HeLa
In short: as §1

MyD88 TIR = target: T3, MyD88 TIR (Homo sapiens, UniProt Q99836); assay: as above
T3 construct: expressed in transfected cells; host or cells: HeLa
In short: as §1

TLR9 signaling = assay: ODN 1668-induced cytokine mRNA expression in BMDM (quantitative real time PCR); type: cell-based, mouse; details: BMDM; for inhibition of TLR9 signaling (ODN 1668-induced cytokine mRNA, overall): peptide 10, 20 or 40 μM, ODN 1668 1 μM
Description: The cDNA obtained was amplified with gene-specific primers for mouse HPRT, TNFα, IL-10, IL-12-p40, or IL-6 and Fast SYBR Green™ master mix (Applied Biosystemsm) as previously described.
Mouse BMDMs were incubated in the presence of a 10, 20 or 40 μM decoy peptide for 30 minutes prior to stimulation with ODN 1668 (1 μM). […] Data represent the means±SEM of at least three independent experiments. The statistical significance of changes in cytokine mRNA was determined by a one-way ANOVA test; *p<0.001. Peptides 9R3 and 9R34 have overlapping sequences (see Table 1).
To investigate inhibition of TLR9 signaling by 9R34 analogues, the following work was performed. Mouse BMDMs were incubated in the presence of a 10, 20 or 40 μM decoy peptide for 30 minutes prior to stimulation with ODN 1668 (1 μM). Cytokine mRNA expression was measured 1 hour after ODN 1668 challenge and normalized to the expression of HPRT. See also Table 1. Data represent means±SEM of at least three independent experiments.

[1] = peptide 10, 20 or 40 μM 30 min before ODN 1668 (1 μM), 1 hour, normalized to HPRT

T2 sequence (P58753 84-213 limits assumed): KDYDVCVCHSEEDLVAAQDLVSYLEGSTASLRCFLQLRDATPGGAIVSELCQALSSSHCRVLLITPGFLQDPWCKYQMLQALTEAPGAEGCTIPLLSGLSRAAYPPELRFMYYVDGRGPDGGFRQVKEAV
T3 sequence (Q99836 159-293 limits assumed): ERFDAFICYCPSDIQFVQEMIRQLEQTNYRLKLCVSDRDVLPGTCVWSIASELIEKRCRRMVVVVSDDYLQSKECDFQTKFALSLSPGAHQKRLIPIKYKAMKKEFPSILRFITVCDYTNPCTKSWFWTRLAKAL

Sequence | binding to TLR9 TIR (FLIM summary) (TLR9 TIR) | binding to TIRAP TIR (FLIM summary) (TIRAP TIR) | interaction with MyD88 TIR (FLIM summary) (MyD88 TIR) | inhibition of TLR9 signaling (ODN 1668-induced cytokine mRNA, overall) (TLR9 signaling) | TNFα mRNA expression (TLR9 signaling; peptide 10, 20 or 40 μM 30 min before ODN 1668 (1 μM), 1 hour after stimulation, normalized to HPRT) | IL-10 mRNA expression (TLR9 signaling; [1]) | IL-12-p40 mRNA expression (TLR9 signaling; [1])
ALRLCLEERD [Peptide 9R34-ΔN] | bind | bind | did not interact | as potent as the parent peptide; also recorded: inhibited TLR9 signaling more potently than 9R3 |  |  | 
RSFWAQLGMALTRD (Synthetic peptide 9R11) | bind | bind | interacted with the MyD88 TIR, but with a lower affinity | inhibit TLR9 signaling | significantly suppressed | significantly suppressed | significantly suppressed
